{"source": "patent US10561703B2", "about": "“Method of modulating sex hormone levels using a sex hormone secretion modulator” (GEMVAX & KAEL CO., LTD., priority 2013, dated 2020)", "system": "LH", "experiment": "LH level in blood (serum CLIA) after repeated sc PEP-1", "type": "in vivo, SD rats", "procedure": "PEP-1 (peptide of SEQ ID NO: 1), lyophilized white powder, obtained according to the method mentioned in example 1 was dissolved in 0.9% of saline, considering the correction factor of PEP-1 (purity: 94.13%, content: 92.36%, correction factor: 1.15). 50 mg/mL stock solution was further diluted into 20 mg/mL, 2 mg/mL, and 1 mg/mL with 0.9% saline, and stored at 4° C. for a week until the use.\nThe purpose of this example is to confirm the change of sexual hormones in blood from SD rats with 7 days repeated daily administration of SEQ ID NO: 1 peptide, PEP-1. This experiment followed the Ethics Regulation of Animal Test by KAMSI Inc. (Korea Animal Medical Science Institute). In addition, this experiment, Non-GLP experiment, referred to the MFDS (Ministry of Food and Drug Safety) notification; Agent 2013-40 (5th April 2013), Principles of Good Laboratory Practice (1997).\nSPF Rats (Crlj:CD(SD)) were purchased from ORIENTBio Inc. (Mokdong-ri, Buk-myeon, Gapyeong-gun, Gyeonggi-do, Republic of Korea). 75 male (6.5 weeks old and 190˜210 g) and 75 female (6.5 weeks old and 160˜180 g) rats were monitored for 4 days, and 64 of male and female rats (each) were selected for the experiment. Raising condition is as follows; 23±3° C. of temperature, […] of relative humidity, 10˜20 times/hr of number of air changes, 12 hours (8 a.m.˜8 p.m.) of lighting with 150˜300 Lux of intensity.\n64 male and female […] (mentioned above) were divided into 8 groups. Administration regimen, for example, drugs, routes, dosages, and volumes were as follows:\nThe detailed administration regimen is as follows; once a day, twice a day and twice a week in each experimental group. Injection initiated at 10 a.m. every day, and each rat was injected at one minute intervals. Rats in Group 9, 10, 13 and 14 were injected twice a week. Administration of high dose test agent preceded that of low dose. The volume of injection was calculated using recently measured weight of rats, and it was 5 mL/kg. Subcutaneous injection was performed as follows; assistant tilted the back of rat upward, and experimenter sterilized the back of rat with 70% alcohol, followed by subcutaneous injection of test agent with 26 G syringe.\n1.4 mL of blood sample (0.7 mL of serum) was collected after measurement of weight (Day 0). Next day (1 Day), 1.4 mL of blood sample (0.7 mL of serum) was collected twice after injection of test agent (4 hrs and 8 hrs after administration of test agent). For next 6 days (Day 2˜Day 7), 1.4 mL of blood was extracted once everyday (4 hours after injection of test agent). Dose and volume of test agent of each group followed the Table 3, and injection time zone was same every day. Blood was extracted from the jugular vein, and left at room temperature for 30 minutes. Serum was separated using centrifugation (10,000 rpm for 5 minutes), and stored at −70±5° C. in Deep freezer until the use. Blood extraction from each subject was done in the same time zone every day.\nA CLIA (Chemi-Luminescence Immune Assay) Kit was used to analyze Testosterone, Estradiol E2, FSH (Follicle stimulating hormone), and LH (Luteinizing hormone). Analysis was completed within 48 hrs after blood extraction (Laboratory Medicine Department, Chung-Ang University Hospital), and detailed method is as follows; One-way ANOVA was used to verify the comparison between the vehicle and PEP-1, and between different doses of PEP-1. For further analysis, Duncan test was used as parametric test and Dunnett's test as non-parametric test. p<0.05 represents the statistical significance, and all statistical analysis was carried out with SPSS 10.1.\nLH was analyzed using the samples prepared from example 2. 50 μL of serum was used for analysis. Fundamentals of analysis is Two-site sandwich immunoassay based on direct chemi-luminescent. As mentioned in example 2, CLIA (Chemi-luminescence immune assay) Kit was used, following the manufacture's protocol."}
{"sequence": "EARPALLTSRLRFIPK (listed as Homo sapiens) [PEP-1, hormone secretion modulator / GnRH analog]", "values": [{"measurement": "LH level in blood", "setting": "G11 Male 100 mg/kg sc 1/day x7, 5 days", "value": 0.19, "unit": "mIU/mL"}, {"measurement": "LH level in blood", "setting": "G11 Male 100 mg/kg sc 1/day x7, 6 days", "value": 0.21, "unit": "mIU/mL"}, {"measurement": "LH level in blood", "setting": "G11 Male 100 mg/kg sc 1/day x7, 7 days", "value": 0.21, "unit": "mIU/mL"}, {"measurement": "LH level in blood", "setting": "G11 Male 100 mg/kg sc 1/day x7, pre", "value": 0.1, "unit": "mIU/mL"}, {"measurement": "LH level in blood", "setting": "G12 Female 100 mg/kg sc 1/day x7, 4 hr", "value": 0.3, "unit": "mIU/mL"}, {"measurement": "LH level in blood", "setting": "G12 Female 100 mg/kg sc 1/day x7, 8 hr", "value": 0.17, "unit": "mIU/mL"}, {"measurement": "LH level in blood", "setting": "G12 Female 100 mg/kg sc 1/day x7, 2 days", "value": 0.22, "unit": "mIU/mL"}, {"measurement": "LH level in blood", "setting": "G12 Female 100 mg/kg sc 1/day x7, 3 days", "value": 0.22, "unit": "mIU/mL"}, {"measurement": "LH level in blood", "setting": "G12 Female 100 mg/kg sc 1/day x7, 4 days", "value": 0.23, "unit": "mIU/mL"}, {"measurement": "LH level in blood", "setting": "G12 Female 100 mg/kg sc 1/day x7, 5 days", "value": 0.23, "unit": "mIU/mL"}, {"measurement": "LH level in blood", "setting": "G12 Female 100 mg/kg sc 1/day x7, 6 days", "value": 0.28, "unit": "mIU/mL"}, {"measurement": "LH level in blood", "setting": "G12 Female 100 mg/kg sc 1/day x7, 7 days", "value": 0.27, "unit": "mIU/mL"}, {"measurement": "LH level in blood", "setting": "G12 Female 100 mg/kg sc 1/day x7, pre", "value": 0.13, "unit": "mIU/mL"}, {"measurement": "LH level in blood", "setting": "G13 Male 100 mg/kg sc 2/week x2 (days 1,7), 4 hr", "value": 1.52, "unit": "mIU/mL"}, {"measurement": "LH level in blood", "setting": "G13 Male 100 mg/kg sc 2/week x2 (days 1,7), 8 hr", "value": 0.21, "unit": "mIU/mL"}, {"measurement": "LH level in blood", "setting": "G13 Male 100 mg/kg sc 2/week x2 (days 1,7), 2 days", "value": 0.11, "unit": "mIU/mL"}, {"measurement": "LH level in blood", "setting": "G13 Male 100 mg/kg sc 2/week x2 (days 1,7), 3 days", "value": 0.11, "unit": "mIU/mL"}, {"measurement": "LH level in blood", "setting": "G13 Male 100 mg/kg sc 2/week x2 (days 1,7), 4 days", "value": 0.14, "unit": "mIU/mL"}, {"measurement": "LH level in blood", "setting": "G13 Male 100 mg/kg sc 2/week x2 (days 1,7), 5 days", "value": 0.13, "unit": "mIU/mL"}, {"measurement": "LH level in blood", "setting": "G13 Male 100 mg/kg sc 2/week x2 (days 1,7), 6 days", "value": 0.11, "unit": "mIU/mL"}, {"measurement": "LH level in blood", "setting": "G13 Male 100 mg/kg sc 2/week x2 (days 1,7), 7 days", "value": 0.99, "unit": "mIU/mL"}, {"measurement": "LH level in blood", "setting": "G13 Male 100 mg/kg sc 2/week x2 (days 1,7), pre", "value": 0.12, "unit": "mIU/mL"}, {"measurement": "LH level in blood", "setting": "G14 Female 100 mg/kg sc 2/week x2 (days 1,7), 4 hr", "value": 0.44, "unit": "mIU/mL"}, {"measurement": "LH level in blood", "setting": "G14 Female 100 mg/kg sc 2/week x2 (days 1,7), 8 hr", "value": 0.18, "unit": "mIU/mL"}, {"measurement": "LH level in blood", "setting": "G14 Female 100 mg/kg sc 2/week x2 (days 1,7), 2 days", "value": 0.17, "unit": "mIU/mL"}, {"measurement": "LH level in blood", "setting": "G14 Female 100 mg/kg sc 2/week x2 (days 1,7), 3 days", "value": 0.14, "unit": "mIU/mL"}, {"measurement": "LH level in blood", "setting": "G14 Female 100 mg/kg sc 2/week x2 (days 1,7), 4 days", "value": 0.09, "unit": "mIU/mL"}, {"measurement": "LH level in blood", "setting": "G14 Female 100 mg/kg sc 2/week x2 (days 1,7), 5 days", "value": 0.12, "unit": "mIU/mL"}, {"measurement": "LH level in blood", "setting": "G14 Female 100 mg/kg sc 2/week x2 (days 1,7), 6 days", "value": 0.11, "unit": "mIU/mL"}, {"measurement": "LH level in blood", "setting": "G14 Female 100 mg/kg sc 2/week x2 (days 1,7), 7 days", "value": 0.57, "unit": "mIU/mL"}, {"measurement": "LH level in blood", "setting": "G14 Female 100 mg/kg sc 2/week x2 (days 1,7), pre", "value": 0.12, "unit": "mIU/mL"}, {"measurement": "LH level in blood", "setting": "G15 Male 250 mg/kg sc 1/day x7, 4 hr", "value": 1.4, "unit": "mIU/mL"}, {"measurement": "LH level in blood", "setting": "G15 Male 250 mg/kg sc 1/day x7, 8 hr", "value": 0.29, "unit": "mIU/mL"}, {"measurement": "LH level in blood", "setting": "G15 Male 250 mg/kg sc 1/day x7, 2 days", "value": 0.28, "unit": "mIU/mL"}, {"measurement": "LH level in blood", "setting": "G15 Male 250 mg/kg sc 1/day x7, 3 days", "value": 0.2, "unit": "mIU/mL"}, {"measurement": "LH level in blood", "setting": "G15 Male 250 mg/kg sc 1/day x7, 4 days", "value": 0.19, "unit": "mIU/mL"}, {"measurement": "LH level in blood", "setting": "G15 Male 250 mg/kg sc 1/day x7, 5 days", "value": 0.2, "unit": "mIU/mL"}, {"measurement": "LH level in blood", "setting": "G15 Male 250 mg/kg sc 1/day x7, 6 days", "value": 0.21, "unit": "mIU/mL"}, {"measurement": "LH level in blood", "setting": "G15 Male 250 mg/kg sc 1/day x7, 7 days", "value": 0.23, "unit": "mIU/mL"}, {"measurement": "LH level in blood", "setting": "G15 Male 250 mg/kg sc 1/day x7, pre", "value": 0.12, "unit": "mIU/mL"}, {"measurement": "LH level in blood", "setting": "G16 Female 250 mg/kg sc 1/day x7, 4 hr", "value": 0.42, "unit": "mIU/mL"}, {"measurement": "LH level in blood", "setting": "G16 Female 250 mg/kg sc 1/day x7, 8 hr", "value": 0.2, "unit": "mIU/mL"}, {"measurement": "LH level in blood", "setting": "G16 Female 250 mg/kg sc 1/day x7, 2 days", "value": 0.23, "unit": "mIU/mL"}, {"measurement": "LH level in blood", "setting": "G16 Female 250 mg/kg sc 1/day x7, 3 days", "value": 0.22, "unit": "mIU/mL"}, {"measurement": "LH level in blood", "setting": "G16 Female 250 mg/kg sc 1/day x7, 4 days", "value": 0.23, "unit": "mIU/mL"}, {"measurement": "LH level in blood", "setting": "G16 Female 250 mg/kg sc 1/day x7, 5 days", "value": 0.26, "unit": "mIU/mL"}, {"measurement": "LH level in blood", "setting": "G16 Female 250 mg/kg sc 1/day x7, 6 days", "value": 0.28, "unit": "mIU/mL"}, {"measurement": "LH level in blood", "setting": "G16 Female 250 mg/kg sc 1/day x7, 7 days", "value": 0.28, "unit": "mIU/mL"}, {"measurement": "LH level in blood", "setting": "G16 Female 250 mg/kg sc 1/day x7, pre", "value": 0.11, "unit": "mIU/mL"}, {"measurement": "Effect on LH secretion", "setting": "male and female", "value": "seems to stimulate the LH secretion"}, {"measurement": "LH level", "setting": "male, 4 hrs, all groups but vehicle, before administration 0.1 mIU/mL", "value": "0.5-1.5 mIU/mL"}]}
